Assay results from patent publication US20240109903A1, “SUBSTITUTED HETEROCYCLES FOR TREATING CANCER” (Northwestern University, priority 2022, published 2024).
pIC50: −log10 of the molar value.

What was measured:
OVCAR-3 = assay: NCI 60 five-dose screen OVCAR-3; assay type: cell-based; conditions: Homo sapiens
T-47D = assay: NCI 60 five-dose screen T-47D; assay type: cell-based; conditions: Homo sapiens, T47D
CAKI-1 = assay: NCI 60 five-dose screen CAKI-1; assay type: cell-based; conditions: Homo sapiens
MOLT-4 = assay: NCI 60 five-dose screen MOLT-4; assay type: cell-based; conditions: Homo sapiens
SR = assay: NCI 60 five-dose screen SR; assay type: cell-based, human
NCI-H23 = assay: NCI 60 five-dose screen NCI-H23; assay type: cell-based; conditions: Homo sapiens
TK-10 = assay: NCI 60 five-dose screen TK-10; assay type: cell-based; conditions: Homo sapiens
786-0 = assay: NCI 60 five-dose screen 786-0; assay type: cell-based; conditions: Homo sapiens
A498 = assay: NCI 60 five-dose screen A498; assay type: cell-based; conditions: Homo sapiens
RPMI-8226 = assay: NCI 60 five-dose screen RPMI-8226; assay type: cell-based; conditions: Homo sapiens
NCI-H226 = assay: NCI 60 five-dose screen NCI-H226; assay type: cell-based; conditions: Homo sapiens
BT-549 = assay: NCI 60 five-dose screen BT-549; assay type: cell-based; conditions: Homo sapiens
SF-539 = assay: NCI 60 five-dose screen SF-539; assay type: cell-based; conditions: Homo sapiens
HS 578T = assay: NCI 60 five-dose screen HS 578T; assay type: cell-based; conditions: Homo sapiens
IGROV1 = assay: NCI 60 five-dose screen IGROV1; assay type: cell-based; conditions: Homo sapiens
MALME-3M = assay: NCI 60 five-dose screen MALME-3M; assay type: cell-based; conditions: Homo sapiens, Malme-3M
U251 = assay: NCI 60 five-dose screen U251; assay type: cell-based; conditions: Homo sapiens
MCF7 = assay: NCI 60 five-dose screen MCF7; assay type: cell-based; conditions: Homo sapiens
A549/ATCC = assay: NCI 60 five-dose screen A549/ATCC; assay type: cell-based; conditions: Homo sapiens
HL-60(TB) = assay: NCI 60 five-dose screen HL-60(TB); assay type: cell-based; conditions: Homo sapiens
ACHN = assay: NCI 60 five-dose screen ACHN; assay type: cell-based; conditions: Homo sapiens
HCC-2998 = assay: NCI 60 five-dose screen HCC-2998; assay type: cell-based; conditions: Homo sapiens
SK-MEL-28 = assay: NCI 60 five-dose screen SK-MEL-28; assay type: cell-based; conditions: Homo sapiens
HOP-62 = assay: NCI 60 five-dose screen HOP-62; assay type: cell-based; conditions: Homo sapiens
OVCAR-4 = assay: NCI 60 five-dose screen OVCAR-4; assay type: cell-based; conditions: Homo sapiens
SK-MEL-5 = assay: NCI 60 five-dose screen SK-MEL-5; assay type: cell-based; conditions: Homo sapiens
MDA-MB-468 = assay: NCI 60 five-dose screen MDA-MB-468; assay type: cell-based; conditions: Homo sapiens
M14 = assay: NCI 60 five-dose screen M14; assay type: cell-based; conditions: Homo sapiens
[1] = read-out: LC50 (the source's name) (converted)
[2] = read-out: LC50 (the source's name)

COc1cc(Cn2c(C(F)(F)F)cc3c(Cl)ncnc32)ccn1 [NUCC-0226694]
GI50 (OVCAR-3): 2.34 µM
pIC50 (OVCAR-3): 5.39
IC (TGI) (OVCAR-3): 7.08 µM
CC50 (OVCAR-3; [1]): 30.9 µM
GI50 (T-47D): 13.5 µM
pIC50 (T-47D): 4.42
IC (TGI) (T-47D): 61.7 µM
CC50 (T-47D; [2]): ≥ 100 µM
GI50 (CAKI-1): 7.24 µM
pIC50 (CAKI-1): 4.86
IC (TGI) (CAKI-1): 20.4 µM
CC50 (CAKI-1; [1]): 46.8 µM
GI50 (MOLT-4): 3.31 µM
pIC50 (MOLT-4): 5.34
IC (TGI) (MOLT-4): 100 µM
CC50 (MOLT-4; [2]): ≥ 100 µM
TGI (SR): 4 −log[M]
GI50 (SR; Homo sapiens): 3.63 µM
pIC50 (SR; Homo sapiens): 5.32
CC50 (SR; Homo sapiens, read-out: LC50 (the source's name)): ≥ 100 µM
GI50 (NCI-H23): 2.19 µM
pIC50 (NCI-H23): 5.40
IC (TGI) (NCI-H23): 4.9 µM
CC50 (NCI-H23; [1]): 13.5 µM
GI50 (TK-10): 19.1 µM
pIC50 (TK-10): 4.34
IC (TGI) (TK-10): 46.8 µM
CC50 (TK-10; [1]): ≥ 100 µM
GI50 (786-0): 10.7 µM
pIC50 (786-0): 4.77
IC (TGI) (786-0): 25.7 µM
CC50 (786-0; [1]): 63.1 µM
GI50 (A498): 15.8 µM
pIC50 (A498): 4.48
IC (TGI) (A498): 30.9 µM
CC50 (A498; [1]): 58.9 µM
GI50 (RPMI-8226): 15.5 µM
pIC50 (RPMI-8226): 4.58
IC (TGI) (RPMI-8226): 79.4 µM
CC50 (RPMI-8226; [2]): ≥ 100 µM
GI50 (NCI-H226): 15.5 µM
pIC50 (NCI-H226): 4.48
IC (TGI) (NCI-H226): 32.4 µM
CC50 (NCI-H226; [1]): 67.6 µM
GI50 (BT-549): 1.62 µM
pIC50 (BT-549): 5.49
IC (TGI) (BT-549): 3.16 µM
CC50 (BT-549; [1]): 6.03 µM
GI50 (SF-539): 13.8 µM
pIC50 (SF-539): 4.61
IC (TGI) (SF-539): 26.9 µM
CC50 (SF-539; [1]): 51.3 µM
GI50 (HS 578T): 3.16 µM
pIC50 (HS 578T): 4.61
IC (TGI) (HS 578T): 16.6 µM
CC50 (HS 578T; [2]): ≥ 100 µM
GI50 (IGROV1; IGROV-1): 1.78 µM
pIC50 (IGROV1; IGROV-1): 5.50
IC (TGI) (IGROV1; IGROV-1): 3.63 µM
CC50 (IGROV1; IGROV-1, read-out: LC50 (the source's name) (converted)): 7.41 µM
GI50 (MALME-3M): 12.6 µM
pIC50 (MALME-3M): 4.59
IC (TGI) (MALME-3M): 25.7 µM
CC50 (MALME-3M; [1]): 51.3 µM
GI50 (U251; U-251): 15.1 µM
pIC50 (U251; U-251): 4.57
IC (TGI) (U251; U-251): 28.8 µM
CC50 (U251; U-251, read-out: LC50 (the source's name) (converted)): 56.2 µM
GI50 (MCF7): 5.13 µM
pIC50 (MCF7): 5.14
IC (TGI) (MCF7): 20 µM
CC50 (MCF7; [1]): 61.7 µM
GI50 (A549/ATCC): 16.6 µM
pIC50 (A549/ATCC): 4.56
IC (TGI) (A549/ATCC): 38 µM
CC50 (A549/ATCC; [1]): 89.1 µM
GI50 (HL-60(TB)): 2.14 µM
pIC50 (HL-60(TB)): 5.47
IC (TGI) (HL-60(TB)): 7.24 µM
CC50 (HL-60(TB); [1]): ≥ 100 µM
GI50 (ACHN): 14.5 µM
pIC50 (ACHN): 4.60
IC (TGI) (ACHN): 28.8 µM
CC50 (ACHN; [1]): 57.5 µM
GI50 (HCC-2998): 1.78 µM
pIC50 (HCC-2998): 5.50
IC (TGI) (HCC-2998): 3.24 µM
CC50 (HCC-2998; [1]): 6.03 µM
GI50 (SK-MEL-28): 4.57 µM
pIC50 (SK-MEL-28): 5.00
IC (TGI) (SK-MEL-28): 16.2 µM
CC50 (SK-MEL-28; [1]): 40.7 µM
GI50 (HOP-62): 14.5 µM
pIC50 (HOP-62): 4.56
IC (TGI) (HOP-62): 29.5 µM
CC50 (HOP-62; [1]): 61.7 µM
GI50 (OVCAR-4): 12 µM
pIC50 (OVCAR-4): 4.64
IC (TGI) (OVCAR-4): 26.9 µM
CC50 (OVCAR-4; [1]): 58.9 µM
GI50 (SK-MEL-5): 3.89 µM
pIC50 (SK-MEL-5): 5.16
IC (TGI) (SK-MEL-5): 14.1 µM
CC50 (SK-MEL-5; [1]): 38 µM
GI50 (MDA-MB-468): 1.78 µM
pIC50 (MDA-MB-468): 5.40
IC (TGI) (MDA-MB-468): 3.8 µM
CC50 (MDA-MB-468; [1]): 7.94 µM
GI50 (M14): 1.51 µM
pIC50 (M14): 5.57
IC (TGI) (M14): 4.17 µM
CC50 (M14; [1]): 16.6 µM
